Experimental data reported in US20230103554A1, “TNFa SIGNALING [sequence] TUMOR-PROMOTING INFLAMMATION THAT CAN BE TARGETED TO THERAPY” (Baylor College of Medicine, priority 2020, published 2023).

Tests used:
[1] = system: CHLA-255-luc/monocyte xenografts; assay: CHLA-255-luc/monocyte subcutaneous xenograft in NSG mice; format: in vivo, mouse
Excerpt: (FIG. 16A) In vivo subcutaneous xenograft model. CHLA-255-luc and freshly isolated human monocytes were embedded in Matrigel and injected into the subcutaneous right flank of eight-week female NSG mice. […] (FIG. 16B) Luminescence readings for each mouse (n=10/group) measured in radiance (photons/second/cm2/steradian). (FIG. 16C) Graphical representation of total luminescence per tumor from (FIG. 16B) over time. (FIG. 16D) Mean tumor luminescence over time, two-way ANOVA with Bonferroni multiple comparisons test (n=10 per group). The top line is NB/Mon+Ctrl. (FIG. 16E) Representative tumors for each group following sacrifice at day 21. ** p<0.01;
Six-week old female NOD/SCID/IL-2Ry-null (NSG) mice were purchased from The Jackson Laboratory and maintained at the Baylor College of Medicine (BCM) animal care facility. At eight-weeks of age, mice were injected in the subcutaneous right flank with either 1×106 CHLA-255-luc (or SK-N-AS-luc) or a combination of 1×106 CHLA-255-luc and 1×10^6 human monocytes (or SK-N-AS-luc/monocyte) embedded in growth factor-reduced Matrigel (Corning) as previously described (54). […] Tumor growth was measured indirectly by weekly bioluminescent imaging (Small Animal Imaging Core Facility, Texas Children's Hospital). After three weeks, mice were euthanized and tumors were saved for IHC (see Tumor IHC) and RNA-seq (see RNA Analysis).

[2] = system: NB tumor cell gene expression; assay: Eukaryotic mRNA-seq of xenograft tumors; format: in vivo; settings: mouse transcripts, vs control tumors
Excerpt: (FIG. 17A) Tumors recovered from mice in FIG. 16 were snap frozen in OTC media, thin sectioned, and stained for murine CD31 expression (red) and DAPI counterstain (blue). Results shown are representative images from five fields of view (FOVs) per tumor, with five tumors per group. Scale bar 50 μm. (FIG. 17B) Total number of CD31+ regions per FOV with box and whisker plot showing quartiles±range (Ctrl n=15, Etan n=25). (FIG. 17C) Size of each CD31+ area quantified per FOV; shown is median CD31+ area per FOV with box and whisker plot showing quartiles±range (Ctrl n=15, Etan n=25) (FIG. 17D) Longest distance across each CD31+ area (Max Feret distance) per FOV; shown is median distance per FOV with box and whisker plot showing quartiles±range (Ctrl n=15, Etan n=25). […]
Total RNA from cell pellets was isolated using the RNeasy Micro Plus Kit (Qiagen). […] Relative changes in gene expression were calculated based on the ΔCt method using housekeeping gene GAPDH as control. […]
Eukaryotic mRNA sequencing with 30M depth and 150 paired end reads was performed by Novogene, Inc. Quality control checks on FASTQ sequencing files were performed by FastQC (v0.11.2, https://www.bioinformatics.babraham.ac.uk/projects/fastqc/). Reads were then aligned to human (GRCh38, Ensembl release version 84) or mouse (GRCm38, Ensembl release version 81) reference genomes separately by hisat2 v2.1.0(51). […]

Substance: etanercept
- reduction of tumor growth (luminescence) ([1]; 5 mg/kg (100 μg) i.p. bi-weekly, vs IgG control): 65%
- macroscopic blood vessel development of treated tumors ([1]; etanercept bi-weekly, vs control tumors): appeared to lack blood vessel development
- infiltration of erythrocytes, platelets, and neutrophils (mouse stroma gene expression) [2]: reduced infiltration of erythrocytes, platelets, and neutrophils
